Where two headings read alike, the source gives them in different places.
Experiments:
human NUDT16 (wild-type) [1] = biological target: T1, human NUDT16 (wild-type) (Homo sapiens, UniProt Q96DE0); test: Determination of kinetic parameters of NUDT16 wild-type (malachite green phosphate release assay); format: biochemical; design: 6-His tag followed by TEV protease site (N, cleaved yes); made in house; host or cells: E. coli Rosetta pLysS; conditions: for k cat/K m, This work / k cat, This work / K m, This work: Michaelis-Menten fit; for k cat, This work / K m, This work: substrate hydrolysis, 37°C; for K m, This work: buffer pH 7.5, 20 mM MgCl2; for Hydrolysis by NUDT16 (qualitative): malachite green assay, sub-μM K m not determinable
Text: To establish an assay to look for product inhibition and to understand the role of the different substituents present on the purine ring, we first wanted to assess the activity of our protein preparations and compare it to the results obtained by Iyama et al. on NUDT16 activity on different nucleotides. Contrary to the results presented in the structural biology part, we used wild-type NUDT16 (no A22V mutation) for these activity studies. Using a malachite green based activity assay for quantification of phosphate release, we determined the kinetic parameters of NUDT16 hydrolysis when incubated in the presence of ITP, XDP and ADP (S3A–S3C Fig), all of which have a suitable K m for assessment with this assay and for inhibition studies (low μM range). The results are summarized and compared in Table 1 with the literature values. […] Our K m values for XDP and ITP are in the same range as data reported in Iyama et al.. Discrepancies between the two studies can be explained by differences in the detection methods (HPLC or malachite green assay), the protein constructs (with or without His-tag) and the buffer conditions. […] However, the k cat for ADP was 15 times higher, leading to a catalytic efficiency in the same range as the one determined for XDP and ITP. Such a correlation between low affinity K m values and low apparent rate constant values is also noticeable when looking more broadly at available data for the purine based substrates.
(§1) Each sample point was obtained in the presence of 1 μM of NUDT16 (0.1 μM when assayed for activity against ITP) and various concentrations of substrates in buffer C (50 mM Tris-HCl pH 7.5, 150 mM NaCl, 20 mM MgCl2, 0.005% Tween-20, and 0.5 mM TCEP). When ITP was used as a substrate, 0.1 unit of yeast inorganic pyrophosphatase (Sigma-Aldrich) was added to the well. The activity assay was performed in 100 μl in a 96-well plate at 37°C and was stopped by addition of 25 μl of Malachite Green Working Solution (prepared as described in [42]). Plate was kept under shaking at room-temperature for 15 min, then 100 μl were transferred into a 384-well plate and the measurement of the absorbance at 630nm was carried out either on a CLARIOstar (BMG LABTECH) or a Victor^3 (PerkinElmer) reader.
(§2) The amount of free phosphate produced during the hydrolysis was estimated by comparison with a standard curve.
(§3) Experiments were performed in triplicate and data analysis was done on GraphPad Prism version 5.01 for Windows (GraphPad Software, San Diego California USA, www.graphpad.com).
(§4) For each assayed substrate, starting substrate concentrations (varying from 0.5 to 240 μM) and incubation times (from 20 to 240 min) were selected in order for the quasi-steady-state assumption to remain valid.

human NUDT16 (wild-type) [2] = biological target: T1, human NUDT16 (wild-type); test: Binding of products to NUDT16 by isothermal titration calorimetry
Protocol: NUDT16 was dialyzed against 20 mM Hepes pH 7.5, 300 mM NaCl, 20 mM MgCl2, 10% glycerol, and 0.5 mM TCEP in a Slide-a-Lyzer cassette (7kDa cut-off). […] The buffer compositions in the cell and the syringe were carefully matched such that the sole difference between them was either the protein or the nucleotide content.
Titrations were performed at 25°C using 32 injections of 1.2μl of nucleotide solutions (following a 1μl pre-injection) spaced by 120 sec into the 200 μl experimental cell on a iTC200 MicroCal instrument (GE Healthcare) at the Karolinska Institutet/SciLifeLab Protein Science Core Facility (http://psf.ki.se).
Binding isotherm and thermodynamic constants were determined through fitting experimental data against a one-site binding-model (number of sites, ΔH and K a being unconstrained during refinement) on Origin software v7.0552 (OriginLab).

NUDT16 = conditions: cited from earlier work; for K m, Ref. 14 / k cat, Ref. 14 / k cat/K m, Ref. 14: literature values, ref 14 (Iyama et al)
NUDT16 A22V = biological target: T2, NUDT16 A22V (Homo sapiens, UniProt Q96DE0, A22V); test: Determination of kinetic parameters of NUDT16 A22V (malachite green assay); format: biochemical; conditions: A22V mutant, Michaelis-Menten fit
T2 construct: 6-His tag followed by TEV protease site (N, cleaved yes); made in house; host or cells: E. coli Rosetta
Protocol: It is worth noting that the protein construct used to obtain the two NUDT16 crystal structures harbors an A22V mutation (see Material and Methods section). […] This was confirmed by comparing the kinetic parameters of NUDT16 wild-type with those obtained with the A22V mutation (S1 Table) when NUDT16 was assayed against XDP and ITP. […] Detailed schemes of all interactions between protein, nucleotide and metals are shown on Fig 3C–3E.
as §1, §2, §3, §4
The procedure was identical whether NUDT16 wild-type or A22V was used in the assay.

[3] = ITC, 25°C, one binding-site model

T1 sequence (Q96DE0 whole entry): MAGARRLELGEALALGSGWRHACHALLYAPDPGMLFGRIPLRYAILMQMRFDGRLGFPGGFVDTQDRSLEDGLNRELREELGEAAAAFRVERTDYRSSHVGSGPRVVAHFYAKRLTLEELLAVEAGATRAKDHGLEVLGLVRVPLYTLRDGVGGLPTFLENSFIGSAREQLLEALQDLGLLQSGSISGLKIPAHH
T2 sequence (Q96DE0 whole entry A22V): as the sequence (Q96DE0 whole entry) above, with A22V counted along it

Structure (SMILES)	k cat/K m, This work (human NUDT16 (wild-type) [1]; NUDT16 wild-type)	k cat, This work (human NUDT16 (wild-type) [1]; NUDT16 wild-type)	K m, This work (human NUDT16 (wild-type) [1]; NUDT16 wild-type)	K m, Ref. 14 (NUDT16)	k cat, Ref. 14 (NUDT16)	k cat/K m, Ref. 14 (NUDT16)	other results
Nc1ncnc2c1ncn2[C@@H]1O[C@H](COP(=O)(O)OP(=O)(O)O)[C@@H](O)[C@H]1O [ADP]	0.52 ± 0.10 10^3 s^-1M^-1	0.0959 ± 0.00897 s⁻¹	185 ± 32 µM	–	–	–	K m for ADP relative to XDP (times higher) (human NUDT16 (wild-type) [1]; NUDT16 wild-type): about 30 times; k cat for ADP relative to XDP (times higher) (human NUDT16 (wild-type) [1]; NUDT16 wild-type): 15 times
Nc1ncnc2c1ncn2[C@@H]1O[C@H](COP(=O)(O)O)[C@@H](O)[C@H]1O [AMP]	–	–	–	–	–	–	Kd (human NUDT16 (wild-type) [2]; ITC, 25°C, one binding-site model, 20 mM MgCl2, pH 7.5): too low for establishing good binding constants
Nc1nc2c(ncn2[C@@H]2O[C@H](COP(=O)(O)OP(=O)(O)O)[C@@H](O)[C@H]2O)c(=O)[nH]1 [GDP]	–	–	–	0.33 µM	0.00863 s⁻¹	26.1 10^3 s^-1M^-1	Hydrolysis by NUDT16 (qualitative) (human NUDT16 (wild-type) [1]): process efficiently
Nc1nc(=O)c2ncn([C@@H]3O[C@H](COP(=O)(O)O)[C@@H](O)[C@H]3O)c2[nH]1 [GMP]	–	–	–	–	–	–	Kd (human NUDT16 (wild-type) [2]): 34.25 ± 0.05 µM; N sites (human NUDT16 (wild-type) [2]; [3]): 1.080 ± 0.015
O=P(O)(O)OP(=O)(O)OC[C@H]1O[C@@H](n2cnc3c(O)ncnc32)[C@H](O)[C@@H]1O [IDP, inosine diphosphate]	–	–	–	0.066 µM	0.0155 s⁻¹	251 10^3 s^-1M^-1	K m for IDP relative to ITP (times lower) (NUDT16; ref 14 (Iyama et al.)): 350 times; Hydrolysis by NUDT16 (qualitative) (human NUDT16 (wild-type) [1]): process efficiently
O=c1[nH]cnc2c1ncn2[C@@H]1O[C@H](COP(=O)(O)OP(=O)(O)OP(=O)(O)O)[C@@H](O)[C@H]1O [ITP]	1.55 ± 0.20 10^3 s^-1M^-1	0.0127 ± 0.0005 s⁻¹	8.23 ± 1.01 µM	22.1 µM	0.051 s⁻¹	2.31 10^3 s^-1M^-1	Km (NUDT16 A22V): 12.8 ± 1.46 µM; kcat, NUDT16 A22V (NUDT16 A22V): 0.00657 ± 0.000217 s⁻¹
O=c1[nH]c(=O)c2ncn([C@@H]3O[C@H](COP(=O)(O)OP(=O)(O)O)[C@@H](O)[C@H]3O)c2[nH]1 [XDP]	0.99 ± 0.23 10^3 s^-1M^-1	0.00613 ± 0.0013 s⁻¹	6.22 ± 0.55 µM	15.7 µM	0.0433 s⁻¹	2.76 10^3 s^-1M^-1	Km (NUDT16 A22V): 9.7 ± 1.25 µM; kcat, NUDT16 A22V (NUDT16 A22V): 0.00515 ± 0.0002 s⁻¹
O=c1[nH]c(=O)c2ncn([C@@H]3O[C@H](COP(=O)(O)O)[C@@H](O)[C@H]3O)c2[nH]1 [XMP]	–	–	–	–	–	–	Kd (human NUDT16 (wild-type) [2]): 39.06 ± 0.07 µM; N sites (human NUDT16 (wild-type) [2]; [3]): 0.821 ± 0.024

From publication PMC4485890 (PLoS ONE, 2015)
